Assays:
Format in all cases: in vivo, ICR mice
[1] = system: mouse model of stroke induced by middle cerebral artery occlusion (MCAO); test: Beam-walking test (Example 1); conditions: 10 mg/kg i.v. Bid from 30 min after infarction
Protocol: (§1) The administration of the respective treatments was started 30 minutes after the MCAO procedure of the mice.
(§2) Seventy-two (72) ICR mice received behavioral training after adaptive feeding period and before the operation to establish stroke models. The behavioral training included beam-walking and rotarod test. The experimental mice were then randomly divided into 6 groups according to the values of the body weight, with 12 mice in each test group as described in Table 1.
(§3) The mice were fasted overnight before modeling and were anesthetized with isoflurane. Right middle cerebral artery occlusion (MCAO) was induced in mice using the intraluminal filament technique to mimic focal cerebral ischemic stroke. After 1 hr, reperfusion was allowed by removing the occlusion. During the operation, a white light was used to maintain the mouse rectal temperature between 36.5° C.-37.0° C.
(§4) Administration of each treatment was performed 0.5 h after the infarction. The neurological function score was evaluated at 24 hrs and 48 hrs after reperfusion, as was assessed by beam-walking, grip strength, and rotarod tests. At 48 h after reperfusion, the whole brain tissue of all rats was harvested to assess the cerebral infarct area by TTC staining, as well as to measure brain volume and brain water content, two indicators of acute cerebral edema.

[2] = system: mouse model of stroke induced by middle cerebral artery occlusion (MCAO); test: Grip strength (Example 1); conditions: 10 mg/kg i.v. Bid from 30 min after infarction
Protocol: as §1, §2, §3, §4

[3] = system: mouse model of stroke induced by middle cerebral artery occlusion (MCAO); test: Rotarod test (Example 1); conditions: 10 mg/kg i.v. Bid from 30 min after infarction
Protocol: as §1, §2, §3, §4

[4] = system: mouse model of stroke induced by middle cerebral artery occlusion (MCAO); test: Cerebral infarct volume by TTC staining (Example 1); conditions: 10 mg/kg i.v. Bid from 30 min after infarction, 48 h after reperfusion
Protocol: as §1, §2, §3, §4

[5] = system: mouse model of stroke induced by middle cerebral artery occlusion (MCAO); test: Brain water content (Example 1); conditions: 10 mg/kg i.v. Bid from 30 min after infarction; 48 h after reperfusion
Protocol: as §1, §2, §3, §4

[6] = system: mouse model of stroke induced by middle cerebral artery occlusion (MCAO); test: Brain volume (Example 1); conditions: 10 mg/kg i.v. Bid from 30 min after infarction; 48 h after reperfusion
Protocol: as §1, §2, §3, §4

[7] = system: mouse model of stroke induced by middle cerebral artery occlusion (MCAO); test: Beam-walking test, time of treatment (Example 2)
Protocol: (§5) The administration of 10 mg/kg butylphthalide and 50 mg/kg ALMB-0166 was started 30 minutes, 2 hours, or 6 hours after the MCAO procedure of the mice. Ninety-six (96) ICR mice received behavioral training after adaptive feeding period and before the operation to establish stroke models. The behavioral training included beam-walking and rotarod test. The experimental mice were then randomly divided into 8 groups according to the values of the body weight, with 12 mice in each test group as described in Table 1. The mice were fasted overnight before modeling and were anesthetized with isoflurane. Right middle cerebral artery occlusion (MCAO) was induced in mice using the intraluminal filament technique to mimic focal cerebral ischemic stroke. After 1 hr, reperfusion was allowed by removing the occlusion. Administration of each treatment was performed 0.5 hrs, 2 hrs, or 6 hrs after the infarction. The neurological function score was evaluated at 24 hrs and 48 hrs after reperfusion, as was assessed by beam-walking, grip strength, and rotarod tests. At 48 hrs after reperfusion, the whole brain tissue of all rats was harvested to assess the cerebral infarct area by TTC staining, as well as to measure brain volume and brain water content, two indicators of acute cerebral edema.

[8] = system: mouse model of stroke induced by middle cerebral artery occlusion (MCAO); test: Grip strength, time of treatment (Example 2)
Protocol: as §5

[9] = system: mouse model of stroke induced by middle cerebral artery occlusion (MCAO); test: Rotarod test, time of treatment (Example 2)
Protocol: as §5

[10] = system: mouse model of stroke induced by middle cerebral artery occlusion (MCAO); test: Cerebral infarct volume by TTC staining, time of treatment (Example 2); conditions: 48 h after reperfusion; for Improvement rate of infarction: vs model
Protocol: as §5

[11] = system: mouse model of stroke induced by middle cerebral artery occlusion (MCAO); test: Brain water content, time of treatment (Example 2); conditions: 10 mg/kg i.v. once 0.5 hr after infarction; 48 h after reperfusion
Protocol: as §5

[12] = 10 mg/kg i.v. once 0.5 hr after infarction, 24 h
[13] = 10 mg/kg i.v. once 0.5 hr after infarction, 48 h
[14] = 10 mg/kg i.v. once 2 hr after infarction, 24 h
[15] = 10 mg/kg i.v. once 2 hr after infarction, 48 h
[16] = 10 mg/kg i.v. once 6 hr after infarction, 24 h
[17] = 10 mg/kg i.v. once 6 hr after infarction, 48 h
[18] = 10 mg/kg i.v. once 0.5 hr after infarction
[19] = 10 mg/kg i.v. once 2 hr after infarction
[20] = 10 mg/kg i.v. once 6 hr after infarction

CCCCC1OC(=O)c2ccccc21 (stereo not drawn) [Butylphthalide]
Beam-walking time ([1]; 24 h): 41.27 ± 21.52 s
Beam-walking time ([1]; 48 h): 41.92 ± 22.83 s
Grip Strength ([2]; 24 h): 206.29 ± 46.55^ g
Grip Strength ([2]; 48 h): 214.71 ± 34.19 g
Rotarod test score, Time ([3]; 24 h): 216.67 ± 91.22 s
Rotarod test score, Time ([3]; 48 h): 146.50 ± 137.21 s
Cerebral Infarction Volume [4]: 27.29 ± 13.07 %
Improvement rate of infarction ([4]; vs model): 43.02%
Brain water content [5]: 329.50 ± 23.60 mg
Brain water ratio [5]: 81.84 ± 1.30%
Brain volume [6]: 0.413 ± 0.03 mL
Beam-walking time [7, 12]: 57.69 ± 3.94 s
Beam-walking time [7, 13]: 51.37 ± 16.46 s
Beam-walking time [7, 14]: 53.12 ± 12.48 s
Beam-walking time [7, 15]: 52.73 ± 10.98 s
Beam-walking time [7, 16]: 10.32 s
Beam-walking time [7, 17]: 58.57 ± 3.23 s
Grip Strength [8, 12]: 203.13 ± 35.30 g
Grip Strength [8, 13]: 196.04 ± 41.72 g
Grip Strength [8, 14]: 199.41 ± 38.48 g
Grip Strength [8, 15]: 186.33 ± 44.64 g
Grip Strength [8, 16]: 187.08 ± 53.81 g
Grip Strength [8, 17]: 168.16 ± 66.94 g
Rotarod test score, Time [9, 12]: 151.83 s
Rotarod test score, Time [9, 13]: 193.25 s
Rotarod test score, Time [9, 14]: 124.67 s
Rotarod test score, Time [9, 15]: 171.67 s
Rotarod test score, Time [9, 16]: 121.42 s
Rotarod test score, Time [9, 17]: 98.00 s
Cerebral Infarction Volume [10, 18]: 28.56%
Improvement rate of infarction [10, 18]: 33.50%
Cerebral Infarction Volume [10, 19]: 34.25%
Improvement rate of infarction [10, 19]: 20.25%
Cerebral Infarction Volume [10, 20]: 31.89%
Improvement rate of infarction [10, 20]: 25.76%
Brain water content [11]: 329.00 mg

— patent publication US20250059264A1, “METHOD OF TREATING STROKE” (AlaMab Therapeutics, Inc., priority 2023, published 2025)
